The text below walks through data of patent US20230123140A1, “DOSE TREATMENTS OF TAUOPATHIES” (AC Immune SA, priority 2020, published 2023).

Series [1] can be described thus: Pharmacokinetics in SAD and MAD studies (plasma, urine). The class given is in vivo. The procedure:
Secondary Objectives: • To assess the PK of ACI-3024 in plasma, urine, and cerebrospinal fluid (CSF). • To compare the plasma and urine PK parameters of ACI-3024 following single oral doses in the fed and fasting states.
In each of Cohorts S1 to S5, 6 subjects (including 3 Japanese subjects in Cohorts S2 through S5) received ACI-3024 and 2 subjects (including 1 Japanese subject in Cohorts S2 through S5) received placebo. All doses were administered in the fasting state in accordance with a randomization schedule on the morning of Day 1, except for subjects in the food-effect cohort (Cohort S4), who were dosed 30 minutes after starting a high-fat breakfast in Treatment Period 2 only. Each subject received only a single dose of ACI-3024 or placebo during the study, except for subjects in the food effect cohort, who received a single dose of ACI-3024 or placebo in the fasting state followed by a single dose of ACI-3024 in the fed state. Thus, subjects in Cohort S4 received either 2 identical doses of ACI-3024 (6 subjects) or 1 dose of placebo and 1 dose of ACI-3024 (2 subjects). Six subjects of Cohort S4 received 750 mg dose of ACI-3024 and 2 subjects received placebo. After a period of wash-up all 8 subjects of Cohort S4 received a fat-breakfast and a 750 mg dose of ACI-3024.
Cohorts MAD-HV1 to MAD-HV3 comprised 10 elderly non-Japanese male or female subjects, 8 were treated with ACI-3024 and 2 were being given placebo. Cohort MAD-HV4 comprised 5 non-elderly Japanese subjects (4 treated with ACI-3024 and 1 given placebo) and 5 […] (4 treated with ACI-3024 and 1 given placebo). Only subjects from MAD HV3 cohort underwent CSF samplings to explore the CSF inflammatory markers, CSF PK, and CSF PD of ACI-3024. For all subjects, dosing was on […], inclusive, and a final single dose administration occurred on […]. Dose in cohort MAD HV1 was 500 mg of ACI-3024 or placebo, QD, fasted. Dose in cohorts MAD HV2 and MAD HV4 was 500 mg of ACI-3024 or placebo, BID (“bis in die” ie., twice a day), fed. Dose in cohort MAD HV3 was 1400 mg of ACI-3024 or placebo, QD (“quaque die” (once a day), fed.

The nature of series [2]: 4-week toxicity study in mice followed by 2 weeks of recovery. As to conditions: both sexes, CD1, mouse, in vivo, po. The series is classed as in vivo, mouse. The procedure: (§1) This study was conducted to evaluate the potential toxicity of ACI-3024 when given daily by oral gavage to CD1 mice for 4 weeks, followed by a 2-week recovery period. Doses of 100, 300 and 1000 mg/kg were administered by p.o. to 10 animals/sex/group daily. The control animals were administered vehicle. The dose volume was 10 mL/kg for all groups.
(§2) Clinical signs, body weights, food consumption, ophthalmology, clinical pathology were evaluated. For each sex/group, a complete necropsy was conducted on 10 animals at the end of the dosing period and on 6 (only control and high dose groups) surviving animals at end of the recovery period.

The next series deals with CD1 mice. The description is as above. The series is classed as in vivo, mouse. As to conditions: 1000 mg/kg/day p.o., Day 9. The procedure:
as §1, §2

Another series in a line: in vivo. Further details: species or system mini-pig. As to conditions: both sexes, Gottingen, minipig, po. The procedure:
This study was conducted to evaluate the potential toxicity of ACI-3024 in a non-rodent species when given daily to Gottingen mini-pig for 4 weeks, followed by a 2-week recovery period.
(§3) Doses tested, 50, 150 and 450 mg/kg were given by p.o. to 3 animals/sex/group daily. The control animals were administered vehicle. The dose volume was 5 mL/kg for all groups.
Clinical signs, body weights, food consumption, electrocardiography, ophthalmology and clinical pathology were evaluated. For each sex/group, a complete necropsy was conducted on 3 animals at the end of the dosing period and on 2 (only control and high dose groups) surviving animals at end of the recovery period.

Series [3] in a line: Toxicokinetics in the 4-week mini-pig toxicity study. The series is classed as in vivo. Conditions: for AUC(0-t) / Cmax / Tmax: Gottingen, minipig, plasma, Day 28, 450 mg/kg oral. The procedure: as §3
Toxico Kinetic (TK) was evaluated on all animals on study Day 1 and Day 28 at different time points.

A further series has as its system cardiovascular system. Description: Cardiovascular evaluation in telemetrized mini-pig. Conditions: single oral dose 0, 50, 150 and 450 mg/kg, male Gottingen mini-pigs. The class given is in vivo. The procedure: This study was conducted to evaluate the potential effects on the cardiovascular system of ACI-3024 when given as single dose to telemetrized Gottingen mini-pig.
Doses of 0, 50, 150 and 450 mg/kg were administered by oral gavage to 4 males/group. The dose volume was set at 5 mL/kg. The study was a randomized cross over design which consisted of four phases separated by seven days of wash out. In each phase each animal received as single administration of one selected doses. Through the phases each animal received all the dose levels once. ECG (heart rate, duration of the PR, QRS, QT, QTcF (QT interval corrected by Fridericia) and RR intervals (millisecond; ms), blood pressure (systolic, diastolic, and mean arterial pressure) and body temperature parameters through a transmitter implanted into the animals were continuously recorded starting from 30 minutes before dosing up to 20 hours after dose. Different timepoints during the recording period were sampled (−30 min (before dose) and 1 h, 2 h, 4 h, 6 h, 8 h, 12 h and 20 h (after dose)), per each timepoint 5-minute segment was used for study purposes.

The mark [4] stands for this setting: statistical assessment, healthy volunteers.
Setting [5] is: both sexes, average M/F minipigs.

Molecules are shown by their SMILES. Read-outs that look alike come from different tables or passages of the source.

As usually defined, the NOAEL is the highest tested level that showed no adverse finding. Broadly, the AUC(0-t) is exposure summed from dosing to a finite time, without extrapolation to infinity. Lower therefore signals less exposure. One may read the Cmax as the highest concentration seen after dosing. Take `Fc1ccc2c3c([nH]c2c1)CCN(c1ccc2oc(N4CCOCC4)nc2c1)C3` [ACI-3024]: the Tmax was 1.25 to 2.5 h in series [1] (both sexes, human, plasma, oral, fasting state, single or multiple doses, read-out: median time of maximum observed plasma concentration (Tmax)); 4 h in series [3] (female minipigs); 6 h in series [3] (male minipigs); 5 h in series [3] (setting [5]). In addition, the half-life was 47.5 to 101 h in series [1] (both sexes, human, plasma, oral, following 14 days of multiple dosing, when calculable, read-out: geometric mean t1/2); above 24 h in series [1] (human, plasma, oral, humans, read-out: plasma half-life); 27.7 to 60.5 h in series [1] (male, human, plasma, oral, following single dose administration, read-out: geometric mean t1/2). Further, in series [1] (fed vs fasting state), the “food effect on rate of absorption” value was “reduced the rate of absorption”. In addition, the “food effect: increase of overall exposure” value in series [1] (fed vs fasting state) was “approximately 3 fold”. Moreover, the excretion in urine entry in series [1] (healthy volunteers) is on record as “Only a small amount”. Further, the accumulation entry in series [1] (multiple dosing, QD or BID regimen) is listed as “evidence of accumulation”. Also, in series [1] (setting [4]), the “dose proportionality of AUC0-tlast and AUC0-∞” value was “dose-proportional increase”. Also, the “dose proportionality of Cmax” value in series [1] (setting [4]) was “subproportional increase”. For the same compound, the no observed adverse effect level (NOAEL) at 4 weeks was 300 mg/kg/day in series [2] and 450 mg/kg in “in vivo”. For the same compound, the “mortality / premature euthanasia” value in the series with CD1 mice was “only one female animal was prematurely euthanized”. In addition, the “dose proportionality of plasma exposure” value in series [3] (50 to 450 mg/kg, except males on Day 1) was “approximately dose-proportionally”. The exposure AUC(0-t) in series [3] (female minipigs) worked out at 101 µg·h/mL; in series [3] (male minipigs), 233 µg·h/mL; in series [3] (setting [5]), 167 µg·h/mL. Moreover, the values for the Cmax in series [3] (female minipigs), in series [3] (male minipigs) and in series [3] (setting [5]) were 7350 ng/mL, 12300 ng/mL and 9840 ng/mL, respectively. Besides, the “effect on cardiovascular parameters and body temperature” value in the series on cardiovascular system is on record as “no effect”.
